Measurements reported in US20250051344A1, “BIFUNCTIONAL SELECTIVE DEGRADERS OF SMARCA2 AND THERAPEUTIC USES THEREOF” (Nurix Therapeutics, Inc., priority 2023, published 2025).

Columns and labels:
[1] = target: T1, SMARCA2 (Homo sapiens, UniProt P51531); assay: SMARCA2 Cellular Degradation Assay (Western blot analysis on Jess platform); format: cell-based; settings: for DC50 / Dmax: cellular degradation; for Fold Selectivity SMARCA4/2: ratio DC50 SMARCA4 / DC50 SMARCA2
T1 construct: endogenous in cells
T1 sequence (P51531 whole entry, species assumed): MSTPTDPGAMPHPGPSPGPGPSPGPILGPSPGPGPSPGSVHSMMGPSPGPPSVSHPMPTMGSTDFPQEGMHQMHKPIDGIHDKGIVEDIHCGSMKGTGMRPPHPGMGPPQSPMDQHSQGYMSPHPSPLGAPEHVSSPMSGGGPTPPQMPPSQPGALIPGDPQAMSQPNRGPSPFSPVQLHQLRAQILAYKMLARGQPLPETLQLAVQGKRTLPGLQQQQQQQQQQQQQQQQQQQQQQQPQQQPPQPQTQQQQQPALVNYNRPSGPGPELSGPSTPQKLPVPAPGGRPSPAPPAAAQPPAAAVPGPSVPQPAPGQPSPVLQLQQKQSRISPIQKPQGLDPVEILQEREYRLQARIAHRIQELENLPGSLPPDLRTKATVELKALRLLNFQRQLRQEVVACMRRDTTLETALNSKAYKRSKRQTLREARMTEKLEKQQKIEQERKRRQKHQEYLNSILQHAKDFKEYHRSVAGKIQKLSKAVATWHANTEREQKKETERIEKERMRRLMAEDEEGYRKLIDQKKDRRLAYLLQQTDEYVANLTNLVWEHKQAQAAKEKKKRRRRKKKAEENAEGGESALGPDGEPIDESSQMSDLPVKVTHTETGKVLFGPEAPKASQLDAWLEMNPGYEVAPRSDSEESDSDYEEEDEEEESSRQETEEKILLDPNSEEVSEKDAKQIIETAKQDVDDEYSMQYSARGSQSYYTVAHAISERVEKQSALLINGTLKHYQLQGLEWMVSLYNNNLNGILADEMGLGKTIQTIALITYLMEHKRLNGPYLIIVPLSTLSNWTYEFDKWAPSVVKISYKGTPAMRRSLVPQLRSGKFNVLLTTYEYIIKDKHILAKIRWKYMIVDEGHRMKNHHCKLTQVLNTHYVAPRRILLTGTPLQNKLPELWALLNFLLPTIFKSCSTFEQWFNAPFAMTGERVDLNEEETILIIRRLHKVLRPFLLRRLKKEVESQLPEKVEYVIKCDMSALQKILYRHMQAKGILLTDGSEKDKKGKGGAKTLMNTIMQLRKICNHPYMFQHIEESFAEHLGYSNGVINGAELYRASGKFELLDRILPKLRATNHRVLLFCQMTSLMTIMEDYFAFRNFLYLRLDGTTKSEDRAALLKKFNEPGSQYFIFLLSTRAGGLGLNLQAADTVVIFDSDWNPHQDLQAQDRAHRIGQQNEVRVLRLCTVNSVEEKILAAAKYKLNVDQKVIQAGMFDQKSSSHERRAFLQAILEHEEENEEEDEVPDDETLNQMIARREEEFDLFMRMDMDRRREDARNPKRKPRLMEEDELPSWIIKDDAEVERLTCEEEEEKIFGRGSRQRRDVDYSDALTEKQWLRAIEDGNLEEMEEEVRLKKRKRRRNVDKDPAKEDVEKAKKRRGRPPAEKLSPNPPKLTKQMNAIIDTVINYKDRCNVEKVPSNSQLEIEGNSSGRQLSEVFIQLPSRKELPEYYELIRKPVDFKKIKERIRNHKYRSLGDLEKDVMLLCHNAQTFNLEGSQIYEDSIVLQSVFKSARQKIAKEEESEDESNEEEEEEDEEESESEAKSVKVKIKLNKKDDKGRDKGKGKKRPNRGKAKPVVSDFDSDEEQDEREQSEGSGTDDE
Method in brief: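 Tumor-derived cell pellets (5×10E5-1×10E6 live cells) lysed in RIPA + 0.2% SDS, phosphatase/protease inhibitors, benzonase; 5 μg protein/capillary on Jess; chemiluminescence/fluorescence immunoassay; SMARCA2/actin peak area, % of vehicle.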

[2] = target: T2, SMARCA4 (Homo sapiens, UniProt P51532); assay: Cellular degradation assay, SMARCA4 (Table 1); format: cell-based
T2 construct: endogenous in cells
T2 sequence (P51532 whole entry, species assumed): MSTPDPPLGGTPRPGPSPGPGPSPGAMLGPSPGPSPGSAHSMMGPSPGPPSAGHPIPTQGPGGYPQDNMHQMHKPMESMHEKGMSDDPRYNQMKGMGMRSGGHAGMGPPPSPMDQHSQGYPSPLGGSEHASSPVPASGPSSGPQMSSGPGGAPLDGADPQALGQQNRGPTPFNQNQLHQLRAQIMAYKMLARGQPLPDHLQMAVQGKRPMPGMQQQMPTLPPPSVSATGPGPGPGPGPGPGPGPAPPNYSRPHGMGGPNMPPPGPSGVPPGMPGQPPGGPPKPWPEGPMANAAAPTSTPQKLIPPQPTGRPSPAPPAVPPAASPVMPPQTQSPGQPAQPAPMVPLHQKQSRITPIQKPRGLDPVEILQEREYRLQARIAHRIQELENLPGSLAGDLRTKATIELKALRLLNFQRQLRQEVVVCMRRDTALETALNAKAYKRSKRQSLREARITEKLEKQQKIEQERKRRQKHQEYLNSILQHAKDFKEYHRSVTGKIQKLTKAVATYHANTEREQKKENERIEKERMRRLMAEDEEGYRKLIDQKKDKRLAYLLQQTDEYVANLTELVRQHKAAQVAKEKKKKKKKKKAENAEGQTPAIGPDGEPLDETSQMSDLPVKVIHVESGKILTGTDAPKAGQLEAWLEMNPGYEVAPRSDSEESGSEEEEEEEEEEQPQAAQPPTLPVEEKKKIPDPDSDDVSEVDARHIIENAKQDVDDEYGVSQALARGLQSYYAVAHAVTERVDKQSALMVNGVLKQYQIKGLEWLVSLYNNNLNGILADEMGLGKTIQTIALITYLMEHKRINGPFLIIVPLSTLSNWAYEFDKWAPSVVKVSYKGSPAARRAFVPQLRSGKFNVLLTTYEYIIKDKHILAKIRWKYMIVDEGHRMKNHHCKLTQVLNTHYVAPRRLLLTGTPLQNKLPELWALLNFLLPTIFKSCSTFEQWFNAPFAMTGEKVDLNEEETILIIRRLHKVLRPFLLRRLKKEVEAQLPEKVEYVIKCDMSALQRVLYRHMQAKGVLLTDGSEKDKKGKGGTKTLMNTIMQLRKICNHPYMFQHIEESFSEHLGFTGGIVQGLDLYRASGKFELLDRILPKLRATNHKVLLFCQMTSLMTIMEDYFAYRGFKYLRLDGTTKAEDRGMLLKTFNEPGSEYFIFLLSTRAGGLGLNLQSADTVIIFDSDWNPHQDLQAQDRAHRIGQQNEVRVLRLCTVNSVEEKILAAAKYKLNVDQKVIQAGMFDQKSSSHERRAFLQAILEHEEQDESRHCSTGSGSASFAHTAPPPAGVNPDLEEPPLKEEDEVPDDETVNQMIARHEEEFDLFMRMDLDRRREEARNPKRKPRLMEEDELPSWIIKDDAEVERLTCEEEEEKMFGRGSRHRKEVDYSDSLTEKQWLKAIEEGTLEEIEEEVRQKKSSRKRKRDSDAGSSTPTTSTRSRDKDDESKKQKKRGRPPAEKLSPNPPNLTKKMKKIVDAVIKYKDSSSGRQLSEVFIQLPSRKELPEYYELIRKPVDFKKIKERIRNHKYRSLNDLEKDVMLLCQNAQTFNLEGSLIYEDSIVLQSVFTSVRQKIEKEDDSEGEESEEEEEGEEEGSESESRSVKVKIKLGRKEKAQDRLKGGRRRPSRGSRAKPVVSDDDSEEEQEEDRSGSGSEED

CC1(NC(=O)C2(c3ccccc3)CCN(c3cnnc(-c4ccccc4O)c3)CC2)CCN(CC2CCN(c3ccc(N[C@@H]4CCC(=O)NC4=O)cn3)CC2)CC1 (racemic) [Example 99, rac-(r)-n-(1-((1-(5-((2,6-dioxopiperidin-3-yl)amino)pyridin-2-yl)piperidin-4-yl)methyl)-4-methylpiperidin-4-yl)-1-(6-(2-hydroxyphenyl)pyridazin-4-yl)-4-phenylpiperidine-4-carboxamide]
DC50 [1]: 48.1 nM
Dmax [1]: 57.3%
Fold Selectivity SMARCA4/2 [1]: 208
Dmax [2]: 46.9%

O=C1CCC(c2ccc(OC3CCN(C(=O)C4(c5ccccc5)CCN(c5cnnc(-c6ccccc6O)c5)CC4)CC3)cc2)C(=O)N1 (racemic) [Example 4, rac-(3R)-3-{4-[(1-{1-[6-(2-hydroxyphenyl)pyridazin-4-yl]-4-phenylpiperidine-4-carbonyl}piperidin-4-yl)oxy]phenyl}piperidine-2,6-dione]
Dmax [1]: 16.4%
Fold Selectivity SMARCA4/2 [1]: 1
Dmax [2]: 9.4%

O=C1CC[C@H](c2ccc(N3CCC(CN4CCC5(CC4)CN(C(=O)C4(c6ccccc6)CCN(c6cnnc(-c7ccccc7O)c6)CC4)C5)CC3)cc2)C(=O)N1 [Example 194, (3R)-3-(4-{4-[(2-{1-[6-(2-hydroxyphenyl)pyridazin-4-yl]-4-phenylpiperidine-4-carbonyl}-2,7-diazaspiro[3.5]nonan-7-yl)methyl]piperidin-1-yl}phenyl)piperidine-2,6-dione]
DC50 [1]: 3.24 nM
Dmax [1]: 88.1%
Fold Selectivity SMARCA4/2 [1]: 10
DC50 [2]: 31.3 nM
Dmax [2]: 70.3%

O=C1CC[C@H](c2ccc(N3CCC(CN4CCC5CN(C(=O)C6(c7ccccc7)CCN(c7cnnc(-c8ccccc8O)c7)CC6)C5C4)CC3)cc2)C(=O)N1 (stereo partly drawn) [Example 51, (3R)-3-(4-{4-[(8-{1-[6-(2-hydroxyphenyl)pyridazin-4-yl]-4-phenylpiperidine-4-carbonyl}-3,8-diazabicyclo[4.2.0]octan-3-yl)methyl]piperidin-1-yl}phenyl)piperidine-2,6-dione]
Dmax [1]: 26.7%
Fold Selectivity SMARCA4/2 [1]: 1
Dmax [2]: 0.85%

C[C@H](Oc1ccc(C2CCC(=O)NC2=O)cc1)C1CCN(C(=O)C2(c3ccccc3)CCN(c3cnnc(-c4ccccc4O)c3)CC2)CC1 (mixture of isomers) [Example 2, (3RS)-3-{4-[(1S)-1-(1-{1-[6-(2-hydroxyphenyl)pyridazin-4-yl]-4-phenylpiperidine-4-carbonyl}piperidin-4-yl)ethoxy]phenyl}piperidine-2,6-dione]
Dmax [1]: 53.5%
Fold Selectivity SMARCA4/2 [1]: 1
Dmax [2]: 22.1%

O=C1CC[C@H](c2ccc(N3CCC(CN4CCC(NC(=O)C5(c6ccccc6)CCN(c6cnnc(-c7ccccc7O)c6)CC5)CC45CCC5)CC3)cc2)C(=O)N1 (stereo partly drawn) [Example 39, N-{5-[(1-{4-[(3R)-2,6-dioxopiperidin-3-yl]phenyl}piperidin-4-yl)methyl]-5-azaspiro[3.5]nonan-8-yl}-1-[6-(2-hydroxyphenyl)pyridazin-4-yl]-4-phenylpiperidine-4-carboxamide]
DC50 [1]: 3.09 nM
Dmax [1]: 84.8%
Fold Selectivity SMARCA4/2 [1]: 25.67
DC50 [2]: 79.3 nM
Dmax [2]: 53.7%

O=C1CC[C@H](c2ccc(N3CCC(CN4CCCN(C(=O)C5(c6ccccc6)CCN(c6cnnc(-c7ccccc7O)c6)CC5)CC4)CC3)cc2)C(=O)N1 [Example 46, (3R)-3-(4-{4-[(4-{1-[6-(2-hydroxyphenyl)pyridazin-4-yl]-4-phenylpiperidine-4-carbonyl}-1,4-diazepan-1-yl)methyl]piperidin-1-yl}phenyl)piperidine-2,6-dione]
DC50 [1]: 33.7 nM
Dmax [1]: 63.3%
Fold Selectivity SMARCA4/2 [1]: 297.00
Dmax [2]: 45.1%

Cn1nc(N2CCC(=O)NC2=O)c2cccc(N3CCC(CN4CC5(C4)CN(C(=O)C4(c6ccccc6)CCN(c6cnnc(-c7ccccc7O)c6)CC4)C5)CC3)c21 [Example 123, 1-(7-{4-[(6-{1-[6-(2-hydroxyphenyl)pyridazin-4-yl]-4-phenylpiperidine-4-carbonyl}-2,6-diazaspiro[3.3]heptan-2-yl)methyl]piperidin-1-yl}-1-methyl-1H-indazol-3-yl)-1,3-diazinane-2,4-dione]
DC50 [1]: 68.1 nM
Dmax [1]: 66.8%
Fold Selectivity SMARCA4/2 [1]: 147
Dmax [2]: 35%

O=C1CCC(Nc2ccc(C3CCN(CC(=O)N4CCC5(CC4)CN(C(=O)C4(c6ccccc6)CCN(c6cnnc(-c7ccccc7O)c6)CC4)C5)CC3)cc2)C(=O)N1 (racemic) [Example 108, rac-(r)-3-((4-(1-(2-(2-(1-(6-(2-hydroxyphenyl)pyridazin-4-yl)-4-phenylpiperidine-4-carbonyl)-2,7-diazaspiro[3.5]nonan-7-yl)-2-oxoethyl)piperidin-4-yl)phenyl)amino)piperidine-2,6-dione]
DC50 [1]: 23.4 nM
Dmax [1]: 66.5%
Fold Selectivity SMARCA4/2 [1]: 8
DC50 [2]: 179 nM
Dmax [2]: 52.5%
